This passage reports IC50 and inhibition results from US20090233910A1, “Npy antagonists, preparation and uses” (CEREP, priority 2005, published 2009).

Molecules are shown by their SMILES. A value given as a limit tells only on which side of the number the result lay.

Test [1] deals with T1, human Y5 receptor (Homo sapiens, UniProt Q15761).
T1 construct: expressed in transfected cells; host or cells: CHO cells (CHO-Y5H), membrane preparation
T1 sequence (Q15761 1-445): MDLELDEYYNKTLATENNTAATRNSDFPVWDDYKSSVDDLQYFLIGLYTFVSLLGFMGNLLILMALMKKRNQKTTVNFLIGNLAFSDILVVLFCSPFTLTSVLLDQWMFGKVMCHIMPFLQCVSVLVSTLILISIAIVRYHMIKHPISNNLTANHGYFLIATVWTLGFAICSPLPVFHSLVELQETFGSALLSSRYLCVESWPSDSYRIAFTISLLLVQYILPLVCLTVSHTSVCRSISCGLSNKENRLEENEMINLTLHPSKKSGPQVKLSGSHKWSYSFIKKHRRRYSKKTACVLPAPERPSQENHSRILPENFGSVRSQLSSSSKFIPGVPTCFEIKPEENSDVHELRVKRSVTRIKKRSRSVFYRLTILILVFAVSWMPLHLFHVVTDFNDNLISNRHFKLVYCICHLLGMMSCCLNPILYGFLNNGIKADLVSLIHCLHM
The test is described as follows: Binding test to the NPY Y5 receptor ([125I]-human PYY, CHO cell membranes). How it is done: The CHO cells expressing either the Y4 or the Y5 human recombinant receptor are cultured in DMEM medium to which is added 5% dialysed foetal calf serum, 10 mM Hepes buffer and 0.8 g/l sodium bicarbonate. They are lifted from their support using a 36 mM citrate buffer without trypsin and without EDTA, and washed in PBS buffer free of Ca^2+ and of Mg^2+. The cell residues are stored at (−80° C.) until fractioning.
The cell residue is redissolved in 10 mM TRIS buffer, 3 mM MgCl2, pH 7.4 and separated with polytron. After centrifuging at 20 000×g the residue is redissolved in this same buffer, potter separated and aliquoted for storage in liquid nitrogen to around 5 mg/ml proteins.
Approximately 80 μg of membranes of CHO cells having stable expression of the human Y5 receptor are incubated for 60 min at 30° C. in 200 μl Krebs-Ringer buffer (pH 7.4) containing 20 mM Hepes, 1% bovine serum albumin, 0.25 mg/ml bacitracin and 0.1 nM of [^125I]-human PYY (Perkin Elmer, NEX 341). The reaction is halted by filtering through Wathman GF/C filters and washing with 3 times 4 ml of buffer at 4° C. The radioactivity deposited on the filter is counted with a gamma counter (Whizard 1470, Wallac, Perkin Elmer). Non-specific binding is determined in the presence of 0.3 μM porcine NPY (Neosystem, SC116). […]

Test [2] concerns the target T2, NPY Y1 receptor (Homo sapiens, UniProt P25929).
T2 construct: host or cells: SK-N-MC cells (whole-cell suspension)
T2 sequence (P25929 1-384): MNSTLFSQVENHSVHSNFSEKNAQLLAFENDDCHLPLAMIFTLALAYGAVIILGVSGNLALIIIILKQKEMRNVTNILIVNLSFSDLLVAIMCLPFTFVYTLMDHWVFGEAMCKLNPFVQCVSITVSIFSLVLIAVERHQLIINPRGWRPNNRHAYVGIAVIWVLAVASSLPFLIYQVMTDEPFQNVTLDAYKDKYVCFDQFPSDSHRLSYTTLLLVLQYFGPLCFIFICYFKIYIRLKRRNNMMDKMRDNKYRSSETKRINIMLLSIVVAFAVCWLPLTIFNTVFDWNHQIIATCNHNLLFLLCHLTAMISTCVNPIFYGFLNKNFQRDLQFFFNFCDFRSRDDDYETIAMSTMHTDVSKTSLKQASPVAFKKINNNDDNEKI
The test is described as follows: Binding test to the NPY Y1 receptor ([125I]-PYY, SK-N-MC cell suspension). To be noted: SK-N-MC cells, 25 pM [125I]-PYY. The procedure: The SK-N-MC cells (ATCC HBT10) are cultured at 37° C. in MEM medium (minimum essential medium) free of phenol red (Invitrogen ref. 04194565M) containing 10% foetal calf serum (Invitrogen ref. 10270-106), 1% non-essential aminoacids (Invitrogen ref. 11140-035), 1% sodium pyruvate (Invitrogen ref. 11360-039), 1% glutamine (Invitrogen ref. 25030-032), 100 IU/ml of penicillin and 100 μg/ml of streptomycin (Invitrogen ref. 15140-122) in a humid atmosphere containing 5% CO2.
After aspirating the culture medium, the cells are washed with a phosphate buffer pH 7.4 (Invitrogen ref. 14190-094), then lifted with a Versene solution (Invitrogen, ref 15040-033). The cells are centrifuged at 500×g for 10 minutes at 4° C. then resuspended in a freeze buffer pH 7.4 containing 50 mM HEPES (N-2-hydroxyethylpiperazine-N′-2-ethanesulfonic acid), 145 mM sodium chloride, 2.6 mM calcium chloride, 1 mM magnesium chloride, 10 mM glucose, and 1 mg/ml bovine albumin. The cell suspension is aliquoted into twenty million cells per milliliter of buffer and stored at −70° C.
The cell suspension is incubated 2 hours at 37° C. in an incubation buffer pH 7.4 containing 50 mM HEPES, 2.5 mM calcium chloride, 1 mM magnesium chloride, 0.025% sodium azide, 1 mg/ml bovine albumin and 25 pM [^125I]-PYY (Perkin Elmer, NEX341). The reaction is halted by filtering through a GF/B filter pre-treated with 0.3% PEI, and washed three times with 1 ml of 50 mM TRIS buffer [tris(hydroxymethyl)aminomethane]/HCl, pH 7.4. The radioactivity deposited on the filter is measured by liquid scintillation count (TopCount, Packard). Non-specific binding is determined in the presence of 1 μM NPY (Bachem, H3322). Results are expressed as IC50 values in nM calculated by non-linear regression with 4 parameters.

As to `CCCCN1CCC(Oc2ccc(C(=O)Nc3ccc(Oc4ccc(NC(=O)NC(CC)CC)cc4OC)cc3)cc2)CC1` [Example 103, 4-(1-Butyl-piperidin-4-yloxy)-N-(4-{4-[3-(1-ethyl-propyl)-ureido]-2-methoxy-phenoxy}-phenyl)-benzamide], the IC50 was over 10000 nM in test [1] (CHO membranes, human Y5, [125I]-human PYY) and 1.8 nM in test [2]. For the same compound, in test [1] (inhibition of specific binding at 10 μM of compound, read-out: % Inh at 10 μM Y5), the inhibition at 10 µM turned out to be 0%.

What is called IC50 is the concentration at which inhibition is half-maximal. Read a high IC50 as weaker potency in that assay.
